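1) Cells in 96-well plates. 2) Compound, 48 h, 5 concentrations. 3) Linear interpolation between surrounding doses. 4) Unreached endpoint = highest concentration. GI50: concentration for 50% inhibition of growth.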 Activity calls are given as the source filed them. No stated cut-off is given here; in the data, active = GI50 up to about 1.1 µM and inactive = higher.
Columns and labels:
Assay in all cases: growth of human tumour cells (NCI), 48 h
M19-MEL = system: M19-MEL
DMS-273 = system: DMS-273
DLD-1 = system: DLD-1
RXF 631 = system: RXF 631
LXFL 529 = system: LXFL 529
KM-20L2 = system: KM-20L2
XF498 = system: XF498
HOP-18 = system: HOP-18
SNB-78 = system: SNB-78

Measured: GI50

C=C[C@@]12CCCCC1C/C(=C(/O)OC)C(=O)C2 (stereo partly drawn)
inactive: M19-MEL > 100 µM | DMS-273 > 100 µM | DLD-1 > 100 µM | RXF 631 > 100 µM | LXFL 529 > 100 µM | KM-20L2 > 100 µM | XF498 > 100 µM | HOP-18 > 100 µM | SNB-78 > 100 µM

Cc1nc(N)sc1C(=O)/C=C/c1ccc(/C=C/C(=O)c2sc(NC(=O)CCCCCCCCC(=O)Nc3nc(C)c(C(=O)/C=C/c4ccc(/C=C/C(=O)c5sc(N)nc5C)cc4)s3)nc2C)cc1
inactive: M19-MEL > 100 µM | DMS-273 > 100 µM | DLD-1 > 100 µM | RXF 631 > 100 µM | LXFL 529 > 100 µM | KM-20L2 > 100 µM | XF498 > 100 µM | HOP-18 > 100 µM | SNB-78 58.5 µM
